Measured values from US10363239B2, “Method for inhibiting growth of cancer cells” (Pain Therapeutics, Inc., priority 2013, dated 2019).
Like-named read-outs stand apart in the source and are kept apart here.

Legend:
[1] = target: FLNA pentapeptide of SEQ ID NO: 1 (Bn-VAKGL) (Homo sapiens, UniProt P21333); assay: FITC-NLX-based FLNA screening assay (inhibition of FITC-naloxone binding to Bn-VAKGL on streptavidin plates); conditions: 10 nM FITC-NLX
[2] = system: mu opiate receptor (MOR); assay: MOR agonist activity using [35S]GTPγS binding assay in striatal membranes; assay type: biochemical; conditions: for MOR agonist activity ([35S]GTPγS binding), FLNA-Binding Compound as Agonist 1 μM + BFNA: 1 μM compound + 1 μM β-funaltrexamine
Method in brief: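 Striatal membranes (200 μg) were preincubated 5 min at 30 °C in HEPES pH 7.5 with 100 mM NaCl, 1 mM MgCl2 and 0.5 nM [35S]GTPγS, then 5 min more with 0.1–10 μM compound. Gαo was immunoprecipitated and bound radioactivity counted by scintillation.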

[3] = FLNA-binding compound 0.01 μM, read-out: Percent Binding Inhibition
[4] = FLNA-binding compound 0.1 μM, read-out: Percent Binding Inhibition
[5] = FLNA-binding compound 1 μM, read-out: Percent Binding Inhibition
[6] = Series B, 0.1 μM compound, relative to DAMGO
[7] = Series B, 0.1 μM compound, [35S]GTPγS binding to Gαo, striatal membranes
[8] = Series B, 1 μM compound + 1 μM β-FNA
[9] = Series B, 1 μM compound + β-FNA, relative to DAMGO + BFNA
[10] = Series B, 1 μM compound, relative to DAMGO
[11] = Series B, 1 μM compound, [35S]GTPγS binding to Gαo, striatal membranes
[12] = read-out: Percent Binding Inhibition, FLNA-binding compound 0.01 μM
[13] = read-out: Percent Binding Inhibition, FLNA-binding compound 0.1 μM
[14] = read-out: Percent Binding Inhibition, FLNA-binding compound 1 μM
[15] = 0.1 μM compound relative to DAMGO
[16] = 1 μM compound + BFNA relative to DAMGO + BFNA
[17] = 1 μM compound relative to DAMGO
[18] = Series C-1, 0.1 μM compound, relative to DAMGO
[19] = Series C-1, 0.1 μM compound, [35S]GTPγS binding to Gαo, striatal membranes
[20] = Series C-1, 1 μM compound + 1 μM β-FNA
[21] = Series C-1, 1 μM compound + β-FNA, relative to DAMGO + BFNA
[22] = Series C-1, 1 μM compound, relative to DAMGO
[23] = Series C-1, 1 μM compound, [35S]GTPγS binding to Gαo, striatal membranes

SMILES	inhibition at 0.01 µM [1, 3] [%]	inhibition at 0.1 µM [1, 4] [%]	inhibition at 1 µM [1, 5] [%]	inhibition at 0.01 µM [1, 12] [%]	inhibition at 0.1 µM [1, 13] [%]	inhibition at 1 µM [1, 14] [%]	MOR agonist activity ([35S]GTPγS binding), FLNA-Binding Compound as Agonist 0.1 μM ([2]; 0.1 μM compound) [%]	% DAMGO (0.1 μM) [2, 15] [%]	MOR agonist activity ([35S]GTPγS binding), FLNA-Binding Compound as Agonist 1 μM ([2]; 1 μM compound) [%]	MOR agonist activity ([35S]GTPγS binding), FLNA-Binding Compound as Agonist 1 μM + BFNA [2] [%]	% DAMGO + BFNA [2, 16] [%]	% DAMGO (1 μM) [2, 17] [%]	% DAMGO (0.1 μM) [2, 18] [%]	Concentration of FLNA-Binding Compound as Agonist 0.1 μM [2, 19] [%]	Concentration of FLNA-Binding Compound as Agonist 1 μM + BFNA [2, 20] [%]	% DAMGO + BFNA [2, 21] [%]	% DAMGO (1 μM) [2, 22] [%]	Concentration of FLNA-Binding Compound as Agonist 1 μM [2, 23] [%]	other results
CN1CCC2(CC1)NC(=O)CN2Cc1ccccc1 [Compound C0104M]	51.4	54.1	55.2																% DAMGO (0.1 μM) ([2]; Series C-2, 0.1 μM compound, relative to DAMGO): 99.5%; MOR agonist activity, percent [35S]GTPγS binding at the stated compound concentration ([2]; Series C-2, 0.1 μM compound, [35S]GTPγS binding to Gαo, striatal membranes): 188.2%; MOR agonist activity, percent [35S]GTPγS binding at the stated compound concentration ([2]; Series C-2, 1 μM compound + 1 μM β-FNA): 143.8%; % DAMGO + BFNA ([2]; Series C-2, 1 μM compound + β-FNA, relative to DAMGO + BFNA): 296.5%; % DAMGO (1 μM) ([2]; Series C-2, 1 μM compound, relative to DAMGO): 96.3%; MOR agonist activity, percent [35S]GTPγS binding at the stated compound concentration ([2]; Series C-2, 1 μM compound, [35S]GTPγS binding to Gαo, striatal membranes): 238.9%
COc1ccc(CCC(=O)CC2c3c(cc4c(c3OC)OCO4)CCN2C)cc1 (stereo not drawn) [Compound B0047]	30.7	37.6	47.1																% DAMGO (0.1 μM) [2, 6]: 106.3%; MOR agonist activity, percent [35S]GTPγS binding at the stated compound concentration [2, 7]: 187.8%; MOR agonist activity, percent [35S]GTPγS binding at the stated compound concentration [2, 8]: 68.4%; % DAMGO + BFNA [2, 9]: 260.1%; % DAMGO (1 μM) [2, 10]: 92.6%; MOR agonist activity, percent [35S]GTPγS binding at the stated compound concentration [2, 11]: 235.6%
CC1CCC(C(C)C)C(OCC(O)Cn2cccc2)C1 (stereo not drawn) [Compound A0038]				46.4	52.3	56.6	176.7	90.1	234.5	107.0	144.8	85.0							
CC1CCC(C(C)C)C(OCC(O)CN2CCCC2)C1 (stereo not drawn) [Compound A0001]				39.7	45.6	52.4	94.3	63.1	181.7	22.2	83.8	78.9							
CC(=O)c1ccc(C(=O)N2CCC3(CC2)OCCN3C(=O)c2ccc(C(C)=O)cc2)cc1 [Compound C0054]	32.9	39.4	43.3										47.0	68.2	43.5	98.9	54.5	127.0	
O=S(=O)(c1ccc(Cl)cc1)N1CCC2(CC1)OCCN2S(=O)(=O)c1ccc(Cl)cc1 [Compound C0067]	31.3	39.7	45										82.9	142.7	33.5	97.1	81.5	179.0	
COc1ccc(OC)c(CCC(=O)CC2c3c(cc4c(c3OC)OCO4)CC[N+]2(C)C)c1 (stereo not drawn) [Compound B0044]				35.2	39.5	44.4													% DAMGO (0.1 μM) [2, 6]: 49.4%; MOR agonist activity, percent [35S]GTPγS binding at the stated compound concentration [2, 7]: 87.3%; MOR agonist activity, percent [35S]GTPγS binding at the stated compound concentration [2, 8]: 134.6%; % DAMGO + BFNA [2, 9]: 511.8%; % DAMGO (1 μM) [2, 10]: 66.9%; MOR agonist activity, percent [35S]GTPγS binding at the stated compound concentration [2, 11]: 170.0%
O=S(=O)(c1ccc(Br)c(C(F)(F)F)c1)N1CCC2(CC1)OCCN2S(=O)(=O)c1ccc(Br)c(C(F)(F)F)c1 [Compound C0077]				45.7	47.7	51							109.5	192.7	136.7	621.4	104.9	265.4	
O=S(=O)(c1cccc(OC(F)(F)F)c1)N1CCC2(CC1)OCCN2S(=O)(=O)c1cccc(OC(F)(F)F)c1 [Compound C0005]				35.2	44.5	51.5							105.4	180.4	166.4	319.4	85.1	227.2	
COc1c2c(cc3c1C(CC(=O)/C=C/c1ccc(Cl)cc1)[N+](C)(C)CC3)OCO2 (stereo not drawn) [Compound B0019]				34.3	41	49													% DAMGO (0.1 μM) [2, 6]: 59.7%; MOR agonist activity, percent [35S]GTPγS binding at the stated compound concentration [2, 7]: 101.0%; MOR agonist activity, percent [35S]GTPγS binding at the stated compound concentration [2, 8]: 81.4%; % DAMGO + BFNA [2, 9]: 123.3%; % DAMGO (1 μM) [2, 10]: 96.0%; MOR agonist activity, percent [35S]GTPγS binding at the stated compound concentration [2, 11]: 256.5%
CC1CCC(C(C)C)C(OCC(O)CN2CCOCC2)C1 (stereo not drawn) [Compound A0004]	40	43.7	47.6				97.4	55.2	144.2	86.0	130.9	55.6							
COc1ccc(OCC(O)CN2CCOc3ccccc32)cc1 (stereo not drawn) [Compound A0076]	36.1	40	44.9				79.8	46.4	172.6	41.2	119.4	78.6							
CC1CCC(C(C)C)C(OCC(O)CN2CCN(CCN3CCOCC3)CC2)C1 (stereo not drawn) [Compound A0011]	45.7	51.1	52.8				236.3	158.2	287.5	47.0	177.4	124.9							
CC1CCC(C(C)C)C(OCC(O)CN2CC(C)OC(C)C2)C1 (stereo not drawn) [Compound A3333]							170.7	88.9	328.3	65.9	136.7	101.0							Percent Binding Inhibition ([1]; FLNA-binding compound 0.01 μM): 40.4%; Percent Binding Inhibition ([1]; FLNA-binding compound 0.1 μM): 48.5%; Percent Binding Inhibition ([1]; FLNA-binding compound 1 μM): 54.2%
COc1ccc(S(=O)(=O)N2CCCC3(C2)OCCN3S(=O)(=O)c2ccc(OC)cc2)cc1 (stereo not drawn) [Compound C0145M]	45.1	53.7	58.3										112.2	193.0	87.0	95.3	88.7	289.2	
